Assay [1] concerns Human immunodeficiency virus 1. Kind of assay: In vitro inhibition of (HIV-1 IIIB) replication. As to conditions: for IC95: Human immunodeficiency virus 1, read-out: CIC95. The format is functional.
For assay [2], the target named is T1, Human immunodeficiency virus type 1 integrase (Human immunodeficiency virus 1, UniProt Q7ZJM1).
Description: Inhibition of recombinant HIV-1 Integrase in strand transfer enzyme assay.
The target of assay [3] is T1, Human immunodeficiency virus type 1 integrase. Briefly: Inhibitory activity was determined against recombinant HIV-1 Integrase (0.1 uM) in strand transfer enzyme assay.

Several values for one entry are separate records, joined by “and”; a condition that tells them apart may be missing. Identical values can stand only once.

T1 sequence (Q7ZJM1 whole entry): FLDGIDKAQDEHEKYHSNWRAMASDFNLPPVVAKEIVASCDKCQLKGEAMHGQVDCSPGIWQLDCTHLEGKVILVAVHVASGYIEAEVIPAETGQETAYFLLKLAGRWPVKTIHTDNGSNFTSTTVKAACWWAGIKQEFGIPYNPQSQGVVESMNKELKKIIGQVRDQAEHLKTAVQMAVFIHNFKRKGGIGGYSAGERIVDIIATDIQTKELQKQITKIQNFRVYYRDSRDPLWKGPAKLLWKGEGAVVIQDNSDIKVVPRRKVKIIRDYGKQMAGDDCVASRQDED

For `O=C(O)C(=O)CC(=O)c1ccc(Cc2ccccc2)s1`, in assay [1], the IC95 is 12.5 µM. Moreover, the IC50 in assay [2] was determined as 0.5 µM. For `O=C(O)C(=O)CC(=O)c1cccc(Cc2ccccc2F)c1`, the IC95 in assay [1] is 0.52 µM. The IC50 in assay [2] was < 0.1 µM.

For `O=C(O)C(=O)CC(=O)c1ccsc1Cc1ccccc1`, in assay [1], the IC95 stood at 25 µM. The compound also came in with an IC50 in assay [2] of 0.18 µM. Take `COc1ccc(Cc2ccccc2)cc1C(=O)CC(=O)C(=O)O`: the IC95 in assay [1] came out at 0.62 µM. In assay [2], the IC50 is < 0.1 µM. For `O=C(O)C(=O)CC(=O)c1cccc(Cc2ccc(Cl)cc2)c1`, the IC95 in assay [1] amounted to 25 µM. The IC50 in assay [2] was 1 µM and 0.5 µM.

Consider `CCOc1ccc(Cc2ccccc2)cc1C(=O)CC(=O)C(=O)O`, for which, in assay [1], the CIC95 was 0.25 µM and the IC95 was 0.15 µM. Moreover, in assay [2], the IC50 is < 0.1 µM. Take `O=C(O)C(=O)CC(=O)c1cccc(Cc2ccccc2Cl)c1`: in assay [1], the IC95 came to 0.62 µM. In assay [2], the IC50 is < 0.1 µM. The like results for `O=C(O)C(=O)CC(=O)c1cccc(Cc2ccc(F)cc2)c1` were, in that order, 0.69 µM and < 0.1 µM. Turning to `CC(C)(C)NC(=O)[C@@H]1CN(Cc2cccnc2)CCN1C[C@@H](O)C[C@@H](Cc1ccccc1)C(=O)N[C@H]1c2ccccc2C[C@H]1O` [INDINAVIR], the IC95 in assay [1] amounted to 0.055 µM. Consider `O=C(O)C(=O)CC(=O)c1csc(Cc2ccccc2)c1`, for which the IC95 in assay [1] came out at 2.5 µM. For the same compound, the IC50 in assay [2] was 0.16 µM and 0.1 µM. Take `COc1ccc(C(=O)CC(=O)C(=O)O)cc1Cc1ccccc1`: the IC95 in assay [1] came to 1.83 µM. In addition, the midpoint of inhibition in assay [2], the IC50, lay at 0.15 µM.

Turning to `O=C(O)C(=O)CC(=O)c1cccn1Cc1ccccc1`, in assay [1], the IC95 was determined as 41.6 µM. The IC50 in assay [2] was 0.22 µM. Take `O=C(O)C(=O)CC(=O)c1cccc(Cc2cccc(Cl)c2)c1`: the IC95 in assay [1] is 0.94 µM. Moreover, in assay [2], the IC50 was < 0.1 µM. In the case of `O=C(O)C(=O)CC(=O)c1cccn1Cc1ccc(F)cc1`, the IC95 in assay [1] is 9.6 µM.

Consider `O=C(O)C(=O)CC(=O)c1cccc(Cc2ccccc2)c1`, for which the IC95 in assay [1] amounted to 1.11 µM. In addition, in assay [2], the IC50 is < 0.1 µM. On the same counts, the results for `O=C(O)C(=O)CC(=O)c1ccccc1Cc1ccccc1` are > 50 µM and 5.67 µM. In the case of `O=C(O)C(=O)CC(=O)c1cccc(Cc2cccc(F)c2)c1`, the IC95 in assay [1] came to 2.08 µM. In addition, the IC50 in assay [2] turned out to be 0.25 µM. For `CC(C)Oc1ccc(Cc2ccccc2)cc1C(=O)CC(=O)C(=O)O`, the IC95 in assay [1] came out at 0.1 µM. The IC50 in assay [3] was < 0.1 µM. In the case of `O=C(O)C(=O)CC(=O)c1ccn(Cc2ccccc2)c1`, in assay [1], the IC95 was 3 µM. In addition, the IC50 in assay [2] was 0.5 µM and 0.6 µM.

As for `COc1cc(Cc2ccccc2)cc(C(=O)CC(=O)C(=O)O)c1`, the IC95 in assay [1] amounted to 2.08 µM. The IC50 in assay [2] stood at 0.14 µM.

Broadly, the IC50 is the concentration at which inhibition is half-maximal.
